Assay: Inhibition of bovine alpha-chymotrypsin using Suc-Leu-Leu-Val-Tyr 4-methylcoumaryl-7-amide as substrate assessed as formation of MCA after 1 hr by fluorometric method
Parameters: species or system Bos taurus

Row | SMILES | IC50 [nM]
1 | CCC[C@@H]1NC(=O)[C@@H]2C[C@H](C)CN2C(=O)[C@@H](NC=O)CNC(=O)[C@@H](CC)NC(=O)c2coc(n2)[C@H](C)NC(=O)C1=O | 2000
2 | CCC[C@@H]1NC(=O)[C@@H]2C[C@H](C)CN2C(=O)[C@@H](NC=O)CNC(=O)[C@@H](CO)NC(=O)c2coc(n2)[C@H](C)NC(=O)C1=O | 3000
3 | CC(C)C[C@@H]1NC(=O)[C@@H]2C[C@H](C)CN2C(=O)[C@@H](NC=O)CNC(=O)[C@@H](CO)NC(=O)c2coc(n2)[C@H](C)NC(=O)C1=O | 10000
